One data set relates to Smn protein. The data set is described as follows: Smn protein assay in cultured cells (SMN HTRF). It is filed as cell-based, human. The settings on record: 48 hours; for maximum fold (Fold) increase of Smn protein: SMA patient fibroblast cells, 7-point concentration data, fold increase relative to vehicle control (SMN HTRF); for EC1.5x (concentration giving 1.5-fold Smn protein increase): SMA Type 1 patient fibroblast cells (GM03813), 7-point concentration curve, SMN HTRF, concentration producing 1.5 times Smn protein vs DMSO vehicle control, read-out: EC1.5x for Smn protein expression. In short, it runs like this: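 Lysates in RIPA with protease inhibitors are incubated overnight at room temperature with HTRF anti-SMN antibodies. EC1.5x is derived from fold increase in ΔF over vehicle.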
(In general: In TR-FRET formats the signal depends on donor and acceptor labels being close together.)

For data set [1], the system named is SMN2 minigene (full length SMN2 minigene mRNA containing SMN2 exon 7). The data set is described as follows: SMN2 minigene mRNA splicing RT-qPCR assay in cultured cells. The settings on record: Homo sapiens, HEK293-H, read-out: EC1.5x for production of full length SMN2 mRNA. Type of data set: cell-based, human. A digest of the protocol: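 Read-out: full-length (exon 7-included) SMN2 minigene mRNA by multiplex RT-qPCR with GAPDH, efficiency-corrected (1+E)^−Ct, GAPDH-normalized and divided by vehicle. Stably transfected HEK293H cells, 24 h compound exposure, duplicates per concentration. Value is EC1.5x, reported as star ranges.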

Setting [2] is: HEK293H cells stably transfected with SMN2-A minigene, 24 hours, 7-point concentration curve, 1.5-fold relative to vehicle-treated cells.

As a reminder, the melting point is the temperature, or range, at which the solid turns liquid.

Read-outs that look alike come from different tables or passages of the source.

`Cc1csc(-c2cc3ccc(N4CCCN(C)CC4)cc3oc2=O)n1` [Compound 285, 7-(4-methyl-1,4-diazepan-1-yl)-3-(4-methyl-1,3-thiazol-2-yl)-2H-chromen-2-one] displayed a melting point of 190 to 200 °C. In the data set on Smn protein, the “maximum fold (Fold) increase of Smn protein” value (from here on “maximum fold (Fold) increase”) is listed as “* (maximum fold increase of ≤1.2)”. Besides, in data set [1] (setting [2]), the EC (1.5-fold) was 1 to 3 µM.

`Cc1cn2cc(-c3cc4ccc(N5CCN(C(C)(C)C)CC5)cc4oc3=O)nc2c(C)n1` [Compound 812, 7-(4-tert-butylpiperazin-1-yl)-3-(6,8-dimethylimidazo[1,2-a]pyrazin-2-yl)-2H-chromen-2-one] gave a melting point of 270 to 272 °C. The “maximum fold (Fold) increase” value in the data set on Smn protein was “*** (fold increase between >1.35 and ≤1.5)”. For the same compound, the EC (1.5-fold) in data set [1] (setting [2]) was less than 0.1 µM.

The compound `Cc1csc(-c2cc3ccc(N4CCNCC4)cc3oc2=O)c1` [Compound 318, 3-(4-methylthiophen-2-yl)-7-(piperazin-1-yl)-2H-chromen-2-one] displayed a melting point of 218 to 220 °C. Further, the “maximum fold (Fold) increase” value in the data set with Smn protein is reported as “* (maximum fold increase of ≤1.2)”. Also, in data set [1] (24 h), the EC (1.5-fold) lay in the range of 1 to 3 µM.

With `C[C@@H]1CN(c2ccc3cc(-c4nc5c(Cl)cccc5s4)c(=O)oc3c2)C[C@H](C)N1` [Compound 25, 3-(4-chloro-1,3-benzothiazol-2-yl)-7-[(3R,5S)-3,5-dimethylpiperazin-1-yl]-2H-chromen-2-one], the melting point lay within 229 to 235 °C. Also, the “maximum fold (Fold) increase” value in the data set on Smn protein was “* (maximum fold increase of ≤1.2)”. In data set [1] (setting [2]), the EC (1.5-fold) was in the range of 0.3 to 1 µM.

Regarding `C[C@H]1CN(c2ccc3cc(-c4ccccn4)c(=O)oc3c2)CCN1` [Compound 444, 7-[(3S)-3-methylpiperazin-1-yl]-3-(pyridin-2-yl)-2H-chromen-2-one], the melting point was in the range of 145 to 147 °C. Besides, the “maximum fold (Fold) increase” value with Smn protein was “* (maximum fold increase of ≤1.2)”. Also, the EC (1.5-fold) in data set [1] (24 h) was 3 to 30 µM.

Turning to `Cc1cn2cc(-c3cc4ccc(N5CCN6CCC[C@@H]6C5)cc4oc3=O)nc2cn1` [Compound 625, 7-[(8aR)-hexahydropyrrolo[1,2-a]pyrazin-2(1H)-yl]-3-(6-methylimidazo[1,2-a]pyrazin-2-yl)-2H-chromen-2-one], the melting point fell in the range of 240 to 245 °C. In the data set with Smn protein, the EC1.5x (concentration giving 1.5-fold Smn protein increase) fell in the range of 300 to 1000 nM; the “maximum fold (Fold) increase” value is “*** (fold increase between >1.35 and ≤1.5)”. The EC (1.5-fold) in data set [1] (setting [2]) was less than 0.1 µM.

`Cc1cn2cc(-c3cc4ccc(N5CCN[C@@H](C)C5)cc4oc3=O)cc2c(C)n1` [Compound 680, 3-(1,3-dimethylpyrrolo[1,2-a]pyrazin-7-yl)-7-[(3S)-3-methylpiperazin-1-yl]-2H-chromen-2-one] gave a melting point of 162 to 165 °C. In the data set with Smn protein, the EC1.5x (concentration giving 1.5-fold Smn protein increase) was less than 300 nM; the “maximum fold (Fold) increase” value was “**** (fold increase between >1.5 and ≤1.65)”. In addition, the EC (1.5-fold) in data set [1] (setting [2]) was less than 0.1 µM.

Regarding `O=c1oc2cc(N3CCNCC3)ccc2cc1Nc1ccc(Cl)cn1` [Compound 65, 3-[(5-chloropyridin-2-yl)amino]-7-(piperazin-1-yl)-2H-chromen-2-one], the melting point lay in the range of 253 to 255 °C. Moreover, the “maximum fold (Fold) increase” value in the data set on Smn protein is on record as “* (maximum fold increase of ≤1.2)”. The EC (1.5-fold) in data set [1] (setting [2]) lay within 0.3 to 1 µM.

`CCN1C[C@@H]2C[C@H]1CN2c1ccc2cc(-c3cn4cc(C)nc(C)c4n3)c(=O)oc2c1` [Compound 793, 3-(6,8-dimethylimidazo[1,2-a]pyrazin-2-yl)-7-[(1S,4S)-5-ethyl-2,5-diazabicyclo[2.2.1]hept-2-yl]-2H-chromen-2-one]: the melting point was 133 to 135 °C. In the data set with Smn protein, the EC1.5x (concentration giving 1.5-fold Smn protein increase) was less than 300 nM; the “maximum fold (Fold) increase” value was “**** (fold increase between >1.5 and ≤1.65)”. Also, in data set [1] (setting [2]), the EC (1.5-fold) is less than 0.1 µM.

For `Cc1ccc2nc(-c3cc4ccc(O[C@@H]5CCNC5)cc4oc3=O)cn2c1.Cl.Cl` [Compound 326, 3-(6-methylimidazo[1,2-a]pyridin-2-yl)-7-[(3R)-pyrrolidin-3-yloxy]-2H-chromen-2-one hydrochloride (1:2)], the melting point lay in the range of 261 to 265 °C. In the data set with Smn protein, the “maximum fold (Fold) increase” value is “** (fold increase between >1.2 and ≤1.35)”. In addition, in data set [1] (setting [2]), the EC (1.5-fold) lay within 0.1 to 0.3 µM.

The compound `O=c1oc2cc(N3CCNCC3)cc(F)c2cc1-c1cc(F)cc(F)c1` [Cpd 290, 3-(3,5-difluorophenyl)-5-fluoro-7-(piperazin-1-yl)-2H-chromen-2-one] yielded a melting point of 193 to 198 °C. Also, in the data set on Smn protein, the “maximum fold (Fold) increase” value is “* (maximum fold increase of ≤1.2)”. In addition, in data set [1] (setting [2]), the EC (1.5-fold) fell in the range of 0.3 to 1 µM.

On to `Cc1cn2cc(-c3cc4c(F)cc(N5CCCN(C)CC5)cc4oc3=O)nc2cn1` [Compound 591, 5-fluoro-7-(4-methyl-1,4-diazepan-1-yl)-3-(6-methylimidazo[1,2-a]pyrazin-2-yl)-2H-chromen-2-one], for which the melting point lay in the range of 210 to 212 °C. For the same compound, in the data set with Smn protein, the EC1.5x (concentration giving 1.5-fold Smn protein increase) is less than 300 nM and the “maximum fold (Fold) increase” value is recorded as “***** (fold increase >1.65)”. Further, the EC (1.5-fold) in data set [1] (setting [2]) was less than 0.1 µM.

Regarding `Cc1cn2cc(-c3cc4ccc(N5CCN(C)[C@@H](C)C5)cc4oc3=O)ccc2n1` [Compound 675, 7-[(3S)-3,4-dimethylpiperazin-1-yl]-3-(2-methylimidazo[1,2-a]pyridin-6-yl)-2H-chromen-2-one], the melting point lay within 205 to 207 °C. Further, in the data set with Smn protein, the EC1.5x (concentration giving 1.5-fold Smn protein increase) fell in the range of 1000 to 3000 nM; the “maximum fold (Fold) increase” value was “**** (fold increase between >1.5 and ≤1.65)”. For the same compound, in data set [1] (setting [2]), the EC (1.5-fold) was less than 0.1 µM.

`C[C@@H]1CN(c2ccc3cc(C(=O)Nc4ccccc4)c(=O)oc3c2)C[C@H](C)N1` [Compound 30, 7-[(3R,5S)-3,5-dimethylpiperazin-1-yl]-2-oxo-N-phenyl-2H-chromene-3-carboxamide]: the melting point lay within 231 to 233 °C. For the same compound, the “maximum fold (Fold) increase” value in the data set on Smn protein is reported as “* (maximum fold increase of ≤1.2)”. In data set [1] (setting [2]), the EC (1.5-fold) lay in the range of 1 to 3 µM.

Compound `C[C@H]1CN(c2ccc3cc(-c4ccc5c(c4)OCO5)c(=O)oc3c2)CCN1` [Compound 489, 3-(1,3-benzodioxol-5-yl)-7-[(3S)-3-methylpiperazin-1-yl]-2H-chromen-2-one] came in with a melting point of 134 to 136 °C. Moreover, in the data set with Smn protein, the “maximum fold (Fold) increase” value is on record as “* (maximum fold increase of ≤1.2)”. Moreover, the EC (1.5-fold) in data set [1] (setting [2]) was 3 to 30 µM.

As to `CC(C)NCc1ccc2cc(-c3nc4c(C(F)(F)F)cccc4s3)c(=O)oc2c1` [Compound 9, 7-[(propan-2-ylamino)methyl]-3-[4-(trifluoromethyl)-1,3-benzothiazol-2-yl]-2H-chromen-2-one], the melting point lay within 191 to 196 °C. Moreover, in the data set with Smn protein, the “maximum fold (Fold) increase” value is recorded as “* (maximum fold increase of ≤1.2)”. Further, the EC (1.5-fold) in data set [1] (setting [2]) was in the range of 3 to 30 µM.

Take `C[C@@H]1CN(c2ccc3cc(-c4nc5c(Cl)cccc5o4)c(=O)oc3c2)C[C@H](C)N1` [Compound 69, 3-(4-chloro-1,3-benzoxazol-2-yl)-7-[(3R,5S)-3,5-dimethylpiperazin-1-yl]-2H-chromen-2-one]: the melting point was in the range of 238 to 240 °C. The “maximum fold (Fold) increase” value in the data set with Smn protein is “* (maximum fold increase of ≤1.2)”. For the same compound, the EC (1.5-fold) in data set [1] (setting [2]) lay within 0.1 to 0.3 µM.

Regarding `Cc1nccn2cc(-c3cc4ccc(N5CCN[C@@H](C)C5)cc4oc3=O)cc12` [Compound 566, 7-[(3S)-3-methylpiperazin-1-yl]-3-(1-methylpyrrolo[1,2-a]pyrazin-7-yl)-2H-chromen-2-one], the melting point lay in the range of 184 to 186 °C. Moreover, in the data set with Smn protein, the EC1.5x (concentration giving 1.5-fold Smn protein increase) is less than 300 nM; the “maximum fold (Fold) increase” value was “**** (fold increase between >1.5 and ≤1.65)”. For the same compound, the EC (1.5-fold) in data set [1] (setting [2]) was less than 0.1 µM.

On to `CN1CCN(c2ccc3cc(-c4cn5ccsc5n4)c(=O)oc3c2)CC1` [Cpd 117, 3-(imidazo[2,1-b][1,3]thiazol-6-yl)-7-(4-methylpiperazin-1-yl)-2H-chromen-2-one], for which the melting point lay within 256 to 258 °C. Moreover, in the data set with Smn protein, the EC1.5x (concentration giving 1.5-fold Smn protein increase) lay in the range of 300 to 1000 nM; the “maximum fold (Fold) increase” value is “**** (fold increase between >1.5 and ≤1.65)”. For the same compound, the EC (1.5-fold) in data set [1] (setting [2]) lay within 0.1 to 0.3 µM.

`CCc1cn2cc(-c3cc4ccc(N5C[C@@H](C)N[C@@H](C)C5)cc4oc3=O)nc2s1` [Cpd 429, 7-[(3R,5S)-3,5-dimethylpiperazin-1-yl]-3-(2-ethylimidazo[2,1-b][1,3]thiazol-6-yl)-2H-chromen-2-one] returned a melting point of 251 to 253 °C. Further, the “maximum fold (Fold) increase” value in the data set with Smn protein was “* (maximum fold increase of ≤1.2)”. The EC (1.5-fold) in data set [1] (setting [2]) lay within 0.3 to 1 µM.

`COc1cccc(-c2cc3ccc(N4CCN[C@H](C)C4)cc3oc2=O)n1` [Compound 361, 3-(6-methoxypyridin-2-yl)-7-[(3R)-3-methylpiperazin-1-yl]-2H-chromen-2-one] returned a melting point of 150 to 152 °C. In addition, in the data set with Smn protein, the “maximum fold (Fold) increase” value is “** (fold increase between >1.2 and ≤1.35)”. The EC (1.5-fold) in data set [1] (setting [2]) lay within 1 to 3 µM.

Take `CN1CCN(c2ccc3cc(-c4cn5cc(F)cnc5n4)c(=O)oc3c2)CC1` [Cpd 480, 3-(6-fluoroimidazo[1,2-a]pyrimidin-2-yl)-7-(4-methylpiperazin-1-yl)-2H-chromen-2-one]: the melting point lay in the range of 275 to 280 °C. Also, the “maximum fold (Fold) increase” value with Smn protein was “* (maximum fold increase of ≤1.2)”. Further, the EC (1.5-fold) in data set [1] (setting [2]) was 3 to 30 µM.

These data come from patent USRE47689E1, “Compounds for treating spinal muscular atrophy” (PTC Therapeutics, Inc., priority 2011, dated 2019).
